The structures appear in SMILES notation.

This note sets out measurements from patent US6699850B2, “Compositions and methods for inhibiting bone resorption” (Merck & Co., Inc., priority 1998, dated 2004).

In experiment [1] the test system is 34 kDa Mst Kinase fragment. Nature of the experiment: In-gel kinase assay of Mst kinase activities in cultured osteoclast-like cells. The class given is cell-based, Murine. Particulars: for blocking of activation of Mst1 cleavage by alendronate monosodium trihydrate: FIG. 5 lanes 3 and 4, 10 μM isoprenoid with 30 μM alendronate monosodium trihydrate; for activation of the 34 kDa Mst Kinase fragment: osteoclast like cells. As to the method: (§1) Murine co-cultures of osteoblasts and marrow cells are prepared using the methods of Wesolowski, et al., Exp Cell Res, (1995), 219, pp. 679-686, which is incorporated by reference herein in its entirety. Bone marrow cells are harvested from 6-week-old male Balb/C mice by flushing marrow spaces of freshly isolated long bones (tibiae and femora) with α-MEM (minimal essential media) containing penicillin/streptomycin (100 I.U./ml of each and 20 mM Hepes buffer). The bone marrow cells are suspended in α-MEM and the cells are filtered through an approximately 70 μm cell strainer. The filtrate is centrifuged at about 300×g for about 7 minutes. The resulting pellet is resuspended in α-MEM supplemented with fetal calf serum (10% v/v) and 10 nM 1, 25-(OH)2 vitamin D3. These bone marrow isolates are added to sub-confluent monolayers of osteoblastic MB 1.8 cells in cell culture plates and cultured for 7 days at 37 °C. in the presence of 5% CO2. Culture media is replenished ever other day. Fusion of the osteoclast precursor cells from bone marrow (with each other) to form multinucleated osteoclast-like cells typically occurs after about 7 days. Osteoclast-like cells are enriched by sequential treatment with collagenase (1 mg/mL in phosphate buffered saline) for one hour at 37° C. and EDTA (0.2 g/L in phosphate buffered saline) for 20 min at 37° C. Non-adherent cells are rinsed away by washing with phosphate buffered saline. Osteoclast-like cells which are resistant to the sequential treatments are present at about 95% purity and are maintained in α-MEM supplemented with fetal calf serum (10% v/v), 10 nM 1,25-(OH)2 vitamin D3, macrophage-colony-stimulating factor (5 ng/mL).
The compounds to be evaluated are prepared as a solution of the desired concentration in α-MEM. Examples of compounds that can be evaluated include nitrogen-containing bisphosphonates such as alendronate monosodium trihydrate, as well as compounds that block the effects of these inhibitors, such as isoprenoid compounds, for example, geranylgeraniol, geranylgeranyl phosphate, geranylgeranyl pyrophosphate, geranylgeranyl acetate, geranylgeranyl propionate, geranylgeranyl benzoate, geranylgeranyl lactate, geranylgeranyl succinate, and geranylgeranyl glutarate. Combinations of compounds can also be evaluated. The solutions of the compounds to be evaluated are added to the cultures for a time period of 17-24 hours. No treatment controls (controls not treated with compounds) are prepared by adding equivalent volumes of α-MEM to the control dishes.
Cells are then harvested and Iysed in a HEPES (N-(2-hydroxyethyl)piperazine-N′-(2-ethansulfonic acid) or Tris buffer containing the following: β-glycerophosphate (50 mM); Na3VO4 (1 mM); NaF (1 mM); Microcystin LR (1 μM); leupeptin (10 μg/ml); aprotinin (10 μg/ml); phenylmethyl sulfonylfluoride (1 mM). Protein concentrations are determined for each lysate and 5-20 μg are loaded into each lane of a SDS-PAGE (sodium dodecyl sulfate-polyacrylamide gel electrophoresis) gel containing Myelin Basic Protein, or another kinase substrate, which has been polymerized into the gel at a concentration between 50-400 μg/ml. Molecular weight standards are also loaded into one or more lanes of the gels. In-gel kinase assays are run according to a standard procedure based on Kameshita and Fujisawa, 1989 (Anal. Biochem. 183:139-143) and of Gotoh et al., 1990 (Eur. J. Biochem. 193: 661-669), both references being incorporated by reference herein in their entirety. The proteins are electrophoresed in the above gels. The gels are then successively soaked in 50 mM HEPES, pH 7.6; 5 mM 2-mercaptoethanol and each of the following (for each wash): (a) 20% isopropanol; (b) no additions; (c) urea (6 M); (d) Urea (3 M); (e) Urea (0.75 M); and Tween 20 (0.05% vol:vol). Kinase reactions are then run by first soaking the gels in 20 mM HEPES, pH 7.6; 20 mM MgCl2; 2 mM DTT and then in the same buffer containing 0.02 M ATP (non-radioactive) with ca. 1000 cpm/pmol ^32P-γ-ATP. […]

Experiment [2] deals with osteoclast function. Nature of the experiment: Osteoclast cell cultures and bone resorption assays. The format is cell-based. Particulars: with a bisphosphonate such as alendronate monosodium trihydrate; no concentration stated. As to the method:
The compounds are dosed both 5 and 6 days after establishing the culture, and the formation of 250 μm cells are counted using an inverted microscope with a 10×objective and quantitated versus a no treatment control.
as §1, with “Osteoclast-like cells are enriched by sequential treatment with collagenase (1 mg/mL in phosphate buffered saline) for one hour at 37° C. and EDTA (0.2 g/L in phosphate buffered saline) for 20 min at 37° C. Non-adherent cells are rinsed away by washing with phosphate buffered saline. Osteoclast-like cells which are resistant to the sequential treatments are present at about 95% purity and are maintained in α-MEM supplemented with fetal calf serum (10% v/v), 10 nM 1,25-(OH)2 vitamin D3, macrophage-colony-stimulating factor (5 ng/mL).” left out

In the case of `CC(C)=CCC/C(C)=C/CC/C(C)=C/CC/C(C)=C/CO` [geranylgeraniol], in experiment [1] (FIG. 4 lane 3, 10 μM geranylgeraniol with 30 μM alendronate monosodium trihydrate), the “effect on activation of the 34 kDa Mst Kinase fragment by alendronate monosodium trihydrate” value is on record as “negates this activation”. Also, in experiment [1], the “blocking of activation of Mst1 cleavage by alendronate monosodium trihydrate” value is reported as “blocked”. In addition, the “effect on cleavage of Mst induced by bisphosphonates such as alendronate monosodium trihydrate” value in experiment [1] (osteoclasts, no concentration stated) is on record as “prevent the cleavage of Mst”. Also, in experiment [2], the “effect on bisphosphonate-induced inhibition of osteoclast function” value is “block the inhibitory effect”.
Turning to `NCCCC(O)(P(=O)(O)O)P(=O)(O)O` [alendronate monosodium trihydrate, 4-amino-1-hydroxybutylidene-1,1-bisphosphonic acid monosodium trihydrate], in experiment [1] (FIG. 1 lane 3, 30 μM, osteoclast-like cells, in-gel kinase assay after immunoprecipitation), the “activation of 34 kDa Mst Kinase fragment immunoprecipitated by anti-Mst and anti-Krs antibody cocktail” value is listed as “activated”. The “activation of the 34 kDa Mst Kinase fragment” value is on record as “activation” in experiment [1] (FIG. 2, 30 μM, about 17 hours); “activation” in experiment [1] (FIG. 2, 100 μM, about 17 hours); “activation” in experiment [1] (FIG. 4 lane 2, 30 μM). Besides, the “activation of Mst1 cleavage” value in experiment [1] (FIG. 5 lane 2, 30 μM, myelin basic protein as substrate) is “activation of Mst1 cleavage”.
Consider `CC(O)(P(=O)(O)O)P(=O)(O)O` [etidronate disodium], for which the “activation of the 34 kDa Mst Kinase fragment” value is listed as “fail to activate” in experiment [1] (FIG. 2, 30 μM, about 17 hours) and “fail to activate” in experiment [1] (FIG. 2, 100 μM, about 17 hours).
Turning to `O=P(O)(O)C(Sc1ccc(Cl)cc1)P(=O)(O)O` [tiludronate disodium], the “activation of the 34 kDa Mst Kinase fragment” value is on record as “fail to activate” in experiment [1] (FIG. 2, 30 μM, about 17 hours) and “fail to activate” in experiment [1] (FIG. 2, 100 μM, about 17 hours).
Consider `CC(C)=CCCC(C)=CCCC(C)=CCO` [farnesol], for which the “blocking of activation of Mst1 cleavage by alendronate monosodium trihydrate” value in experiment [1] is listed as “partially blocked”.
